Measurements published in publication doi:10.1101/2020.06.11.145995v1 (biorxiv, 2020).
Where two headings read alike, the source gives them in different places.

Tests used:
Test in all cases: biochemical
FLT3(K663Q) = FLT3(K663Q) (Homo sapiens, UniProt P36888, K663Q)
FLT3(D835H) = FLT3(D835H) (Homo sapiens, UniProt P36888, D835H)
DCAMKL3 = DCAMKL3 (Homo sapiens, UniProt Q9C098)
MLK2 = MLK2 (Homo sapiens, UniProt Q02779)
JNK3 = JNK3 (Homo sapiens, UniProt P53779)
MARK3 = MARK3 (Homo sapiens, UniProt P27448)
DLK = DLK (Homo sapiens, UniProt Q12852)
CDK11 = CDK11 (Homo sapiens, UniProt Q9BWU1)
INSRR = INSRR (Homo sapiens, UniProt P14616)
BMPR2 = BMPR2 (Homo sapiens, UniProt Q13873)
CDKL1 = CDKL1 (Homo sapiens, UniProt Q00532)
IRAK3 = IRAK3 (Homo sapiens, UniProt Q9Y616)
MST2 = MST2 (Homo sapiens, UniProt Q13188)
CLK3 = CLK3 (Homo sapiens, UniProt P49761)
LATS1 = LATS1 (Homo sapiens, UniProt O95835)
MST1 = MST1 (Homo sapiens, UniProt Q13043)
DDR2 = DDR2 (Homo sapiens, UniProt Q16832)
ACVR2A = ACVR2A (Homo sapiens, UniProt P27037)
FLT3 = FLT3 (Homo sapiens, UniProt P36888)
CLK2 = CLK2 (Homo sapiens, UniProt P49760)
BTK = BTK (Homo sapiens, UniProt Q06187)
MYLK = MYLK (Homo sapiens, UniProt Q15746)
HIPK3 = HIPK3 (Homo sapiens, UniProt Q9H422)
CAMK2D = CAMK2D (Homo sapiens, UniProt Q13557)
MAP4K2 = MAP4K2 (Homo sapiens, UniProt Q12851)
BRAF(V600E) = BRAF(V600E) (Homo sapiens, UniProt P15056, V600E)
IRAK4 = IRAK4 (Homo sapiens, UniProt Q9NWZ3)
CAMK2G = CAMK2G (Homo sapiens, UniProt Q13555)
INSR = INSR (Homo sapiens, UniProt P06213)
KIT(A829P) = KIT(A829P) (Homo sapiens, UniProt P10721, A829P)
[1] = read-out: CPT-1-70-1 (1uM) % control
[2] = read-out: HYJ-2-002-1 (1uM) % control

Chain of MARK3 (P27448 whole entry): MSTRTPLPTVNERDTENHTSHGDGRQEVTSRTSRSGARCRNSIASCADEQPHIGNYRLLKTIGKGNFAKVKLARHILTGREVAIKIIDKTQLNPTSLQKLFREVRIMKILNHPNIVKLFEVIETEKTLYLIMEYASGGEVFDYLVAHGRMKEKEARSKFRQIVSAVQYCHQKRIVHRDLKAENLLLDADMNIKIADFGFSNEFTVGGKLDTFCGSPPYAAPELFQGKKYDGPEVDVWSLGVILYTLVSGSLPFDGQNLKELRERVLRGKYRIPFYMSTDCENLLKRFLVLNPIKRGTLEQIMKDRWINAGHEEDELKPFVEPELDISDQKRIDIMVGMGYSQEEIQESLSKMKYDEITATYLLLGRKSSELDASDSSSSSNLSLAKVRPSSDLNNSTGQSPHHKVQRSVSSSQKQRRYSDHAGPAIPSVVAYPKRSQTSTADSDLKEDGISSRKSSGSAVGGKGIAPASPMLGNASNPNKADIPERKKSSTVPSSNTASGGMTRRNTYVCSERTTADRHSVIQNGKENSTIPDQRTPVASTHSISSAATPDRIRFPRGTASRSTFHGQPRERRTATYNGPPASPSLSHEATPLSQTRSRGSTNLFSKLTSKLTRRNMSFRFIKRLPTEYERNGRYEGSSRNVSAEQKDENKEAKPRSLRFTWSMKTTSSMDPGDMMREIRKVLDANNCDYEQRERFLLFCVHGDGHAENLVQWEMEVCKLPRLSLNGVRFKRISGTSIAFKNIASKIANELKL
Chain of CLK3 (P49761 whole entry): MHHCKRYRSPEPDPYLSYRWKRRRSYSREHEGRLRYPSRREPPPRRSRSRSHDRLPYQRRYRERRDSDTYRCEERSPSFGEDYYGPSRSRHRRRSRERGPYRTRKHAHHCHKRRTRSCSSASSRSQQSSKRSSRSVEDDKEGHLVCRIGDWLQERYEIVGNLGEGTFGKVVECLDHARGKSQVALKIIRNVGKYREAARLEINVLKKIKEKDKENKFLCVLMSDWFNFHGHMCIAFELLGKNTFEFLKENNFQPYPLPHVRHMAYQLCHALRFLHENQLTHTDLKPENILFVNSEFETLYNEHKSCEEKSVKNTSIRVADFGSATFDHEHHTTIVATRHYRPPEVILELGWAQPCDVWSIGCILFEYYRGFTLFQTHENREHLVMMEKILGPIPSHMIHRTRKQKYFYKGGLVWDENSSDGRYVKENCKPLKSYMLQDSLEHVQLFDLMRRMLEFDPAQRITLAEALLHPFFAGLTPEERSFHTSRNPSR
Chain of DLK (Q12852 whole entry): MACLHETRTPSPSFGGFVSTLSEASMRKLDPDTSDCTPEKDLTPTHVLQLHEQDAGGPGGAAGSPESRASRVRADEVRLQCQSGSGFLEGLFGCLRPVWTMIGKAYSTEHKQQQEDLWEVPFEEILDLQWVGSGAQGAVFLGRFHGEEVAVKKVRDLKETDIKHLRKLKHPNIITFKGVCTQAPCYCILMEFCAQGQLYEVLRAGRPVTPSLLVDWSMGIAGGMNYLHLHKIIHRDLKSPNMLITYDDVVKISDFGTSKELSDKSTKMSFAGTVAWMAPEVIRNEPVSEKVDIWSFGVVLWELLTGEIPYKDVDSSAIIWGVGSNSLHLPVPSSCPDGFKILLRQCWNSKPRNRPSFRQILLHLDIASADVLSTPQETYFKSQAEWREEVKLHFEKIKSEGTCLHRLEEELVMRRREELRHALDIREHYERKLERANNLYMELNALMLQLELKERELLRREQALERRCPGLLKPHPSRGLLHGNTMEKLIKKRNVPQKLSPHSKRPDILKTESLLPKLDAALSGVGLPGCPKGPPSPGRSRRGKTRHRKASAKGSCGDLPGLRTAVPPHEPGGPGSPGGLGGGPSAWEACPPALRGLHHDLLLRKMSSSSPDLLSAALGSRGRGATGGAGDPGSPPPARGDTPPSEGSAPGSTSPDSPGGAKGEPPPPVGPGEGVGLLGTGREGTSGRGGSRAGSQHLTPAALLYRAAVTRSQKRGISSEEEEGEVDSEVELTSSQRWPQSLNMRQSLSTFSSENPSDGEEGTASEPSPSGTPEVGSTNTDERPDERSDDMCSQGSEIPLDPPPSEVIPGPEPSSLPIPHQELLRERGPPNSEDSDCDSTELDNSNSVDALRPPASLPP
Chain of MST1 (Q13043 whole entry): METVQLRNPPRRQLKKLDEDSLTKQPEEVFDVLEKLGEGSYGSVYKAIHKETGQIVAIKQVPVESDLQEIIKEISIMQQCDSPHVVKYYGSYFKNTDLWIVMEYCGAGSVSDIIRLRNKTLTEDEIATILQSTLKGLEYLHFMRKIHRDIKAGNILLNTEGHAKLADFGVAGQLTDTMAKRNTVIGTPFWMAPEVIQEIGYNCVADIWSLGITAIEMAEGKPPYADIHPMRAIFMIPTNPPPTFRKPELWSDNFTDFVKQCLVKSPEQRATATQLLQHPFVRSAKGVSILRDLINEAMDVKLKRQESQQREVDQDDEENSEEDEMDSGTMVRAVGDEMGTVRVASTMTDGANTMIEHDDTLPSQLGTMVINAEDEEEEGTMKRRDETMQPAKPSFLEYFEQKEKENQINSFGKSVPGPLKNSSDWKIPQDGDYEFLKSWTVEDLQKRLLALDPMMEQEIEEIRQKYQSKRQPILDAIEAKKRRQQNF
Chain of KIT(A829P) (P10721 whole entry A829P): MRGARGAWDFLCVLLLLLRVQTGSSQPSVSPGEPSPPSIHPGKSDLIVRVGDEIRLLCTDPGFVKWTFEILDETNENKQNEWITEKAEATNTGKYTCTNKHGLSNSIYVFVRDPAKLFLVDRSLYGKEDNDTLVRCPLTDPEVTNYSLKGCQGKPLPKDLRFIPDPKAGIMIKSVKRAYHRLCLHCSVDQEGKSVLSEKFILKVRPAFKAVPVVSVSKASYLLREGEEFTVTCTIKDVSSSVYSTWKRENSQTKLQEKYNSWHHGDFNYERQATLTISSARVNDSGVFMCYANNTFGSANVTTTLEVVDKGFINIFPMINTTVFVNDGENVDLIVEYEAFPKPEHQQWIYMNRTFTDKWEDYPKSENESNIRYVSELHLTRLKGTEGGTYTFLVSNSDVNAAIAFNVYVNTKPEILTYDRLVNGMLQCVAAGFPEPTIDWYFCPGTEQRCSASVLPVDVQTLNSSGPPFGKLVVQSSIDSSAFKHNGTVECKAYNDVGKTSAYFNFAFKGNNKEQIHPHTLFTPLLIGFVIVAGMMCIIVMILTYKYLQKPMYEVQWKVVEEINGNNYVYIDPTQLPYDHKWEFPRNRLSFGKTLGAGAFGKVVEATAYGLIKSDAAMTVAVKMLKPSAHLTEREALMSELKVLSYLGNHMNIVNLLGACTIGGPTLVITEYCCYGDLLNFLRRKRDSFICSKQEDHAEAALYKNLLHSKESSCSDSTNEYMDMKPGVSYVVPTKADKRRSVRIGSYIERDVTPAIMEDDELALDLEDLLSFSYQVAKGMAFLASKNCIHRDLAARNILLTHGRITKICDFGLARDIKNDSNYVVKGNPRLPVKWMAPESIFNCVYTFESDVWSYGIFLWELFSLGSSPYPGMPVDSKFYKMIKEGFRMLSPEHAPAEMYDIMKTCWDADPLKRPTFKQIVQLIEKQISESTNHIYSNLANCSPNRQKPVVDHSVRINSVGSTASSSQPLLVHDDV
Chain of BRAF(V600E) (P15056 whole entry V600E): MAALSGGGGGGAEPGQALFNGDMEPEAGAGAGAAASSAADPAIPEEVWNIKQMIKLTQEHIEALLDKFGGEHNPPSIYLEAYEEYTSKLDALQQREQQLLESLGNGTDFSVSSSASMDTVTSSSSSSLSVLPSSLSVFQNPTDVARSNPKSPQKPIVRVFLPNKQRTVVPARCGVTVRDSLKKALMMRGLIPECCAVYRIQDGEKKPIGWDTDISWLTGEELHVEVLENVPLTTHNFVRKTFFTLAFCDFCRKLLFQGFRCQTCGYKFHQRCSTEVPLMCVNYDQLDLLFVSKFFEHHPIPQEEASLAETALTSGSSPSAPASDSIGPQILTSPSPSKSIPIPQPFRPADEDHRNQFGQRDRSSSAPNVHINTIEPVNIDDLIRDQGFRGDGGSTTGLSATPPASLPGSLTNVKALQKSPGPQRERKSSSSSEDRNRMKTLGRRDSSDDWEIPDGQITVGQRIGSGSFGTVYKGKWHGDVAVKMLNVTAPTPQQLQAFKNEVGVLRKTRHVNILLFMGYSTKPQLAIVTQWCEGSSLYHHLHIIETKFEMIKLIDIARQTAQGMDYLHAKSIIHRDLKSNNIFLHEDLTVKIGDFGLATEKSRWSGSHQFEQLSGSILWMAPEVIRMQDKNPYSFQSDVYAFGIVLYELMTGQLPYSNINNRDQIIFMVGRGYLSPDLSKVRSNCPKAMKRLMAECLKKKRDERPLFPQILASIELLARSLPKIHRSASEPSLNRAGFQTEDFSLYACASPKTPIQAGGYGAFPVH
Chain of CLK2 (P49760 whole entry): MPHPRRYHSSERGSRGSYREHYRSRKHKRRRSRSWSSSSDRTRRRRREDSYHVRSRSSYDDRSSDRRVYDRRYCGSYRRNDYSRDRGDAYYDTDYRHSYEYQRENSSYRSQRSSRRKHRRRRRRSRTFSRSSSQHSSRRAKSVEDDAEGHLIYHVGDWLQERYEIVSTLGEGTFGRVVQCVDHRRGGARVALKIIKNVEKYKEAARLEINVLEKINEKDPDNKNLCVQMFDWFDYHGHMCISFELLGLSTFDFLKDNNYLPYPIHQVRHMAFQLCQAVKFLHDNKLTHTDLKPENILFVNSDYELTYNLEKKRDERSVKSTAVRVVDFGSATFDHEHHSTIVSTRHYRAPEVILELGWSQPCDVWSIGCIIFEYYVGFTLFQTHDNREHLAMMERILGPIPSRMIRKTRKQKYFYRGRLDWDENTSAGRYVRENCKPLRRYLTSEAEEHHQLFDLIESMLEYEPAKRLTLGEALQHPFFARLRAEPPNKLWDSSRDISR

Q: What does the source list for `CN1CCN(c2ccc(Nc3nc(Oc4ccc(NC(=O)CCl)cc4)c4cc[nH]c4n3)cc2)CC1` [CPT1-70-1]?
A: remaining activity at 1 µM (FLT3(K663Q); [1]): 2.4%; remaining activity at 1 µM (FLT3(D835H); [1]): 10%; remaining activity at 1 µM (DCAMKL3; [1]): 56%; remaining activity at 1 µM (MLK2; [1]): 56%; remaining activity at 1 µM (JNK3; [1]): 4.6%; remaining activity at 1 µM (MARK3; [1]): 9.2%; remaining activity at 1 µM (DLK; [1]): 78%; remaining activity at 1 µM (CDK11; [1]): 100%; remaining activity at 1 µM (INSRR; [1]): 33%; remaining activity at 1 µM (BMPR2; [1]): 100%; remaining activity at 1 µM (CDKL1; [1]): 66%; remaining activity at 1 µM (IRAK3; [1]): 89%; remaining activity at 1 µM (MST2; [1]): 86%; remaining activity at 1 µM (CLK3; [1]): 82%; remaining activity at 1 µM (LATS1; [1]): 77%; remaining activity at 1 µM (MST1; [1]): 100%; remaining activity at 1 µM (DDR2; [1]): 100%; remaining activity at 1 µM (ACVR2A; [1]): 100%; remaining activity at 1 µM (FLT3; [1]): 3%; remaining activity at 1 µM (CLK2; [1]): 22%; remaining activity at 1 µM (BTK; [1]): 7%; remaining activity at 1 µM (MYLK; [1]): 100%; remaining activity at 1 µM (HIPK3; [1]): 74%; remaining activity at 1 µM (CAMK2D; [1]): 100%; remaining activity at 1 µM (MAP4K2; [1]): 25%; remaining activity at 1 µM (BRAF(V600E); [1]): 100%; remaining activity at 1 µM (IRAK4; [1]): 94%; remaining activity at 1 µM (CAMK2G; [1]): 100%; remaining activity at 1 µM (INSR; [1]): 17%; remaining activity at 1 µM (KIT(A829P); [1]): 75%

Q: For `CCN1CCN(Cc2ccc(NC(=O)c3ccc(C)c(CCc4cnc5[nH]ccc5c4OC)c3)cc2C(F)(F)F)CC1` [HYJ-2-002-1], which remaining activity at 1 µM (FLT3(K663Q); [2]) is on record?
A: 1.6%

Q: And the remaining activity at 1 µM (FLT3(D835H); [2])?
A: 7.3%

Q: What about the remaining activity at 1 µM (DCAMKL3; [2]) of the same compound?
A: 84%

Q: What about the remaining activity at 1 µM (MLK2; [2]) of the same compound?
A: 93%

Q: What about the remaining activity at 1 µM (JNK3; [2]) of the same compound?
A: 75%

Q: And the remaining activity at 1 µM (MARK3; [2])?
A: 100%

Q: And the remaining activity at 1 µM (DLK; [2])?
A: 86%

Q: And the remaining activity at 1 µM (CDK11; [2])?
A: 14%

Q: What about the remaining activity at 1 µM (INSRR; [2]) of the same compound?
A: 100%

Q: What about the remaining activity at 1 µM (BMPR2; [2]) of the same compound?
A: 98%

Q: What about the remaining activity at 1 µM (CDKL1; [2]) of the same compound?
A: 94%

Q: And the remaining activity at 1 µM (IRAK3; [2])?
A: 100%

Q: What about the remaining activity at 1 µM (MST2; [2]) of the same compound?
A: 83%

Q: What about the remaining activity at 1 µM (CLK3; [2]) of the same compound?
A: 88%

Q: What about the remaining activity at 1 µM (LATS1; [2]) of the same compound?
A: 100%

Q: What about the remaining activity at 1 µM (MST1; [2]) of the same compound?
A: 89%

Q: What about the remaining activity at 1 µM (DDR2; [2]) of the same compound?
A: 0.05%

Q: What about the remaining activity at 1 µM (ACVR2A; [2]) of the same compound?
A: 100%

Q: And the remaining activity at 1 µM (FLT3; [2])?
A: 0.5%

Q: And the remaining activity at 1 µM (CLK2; [2])?
A: 85%

Q: What about the remaining activity at 1 µM (BTK; [2]) of the same compound?
A: 8.1%

Q: And the remaining activity at 1 µM (MYLK; [2])?
A: 100%

Q: What about the remaining activity at 1 µM (HIPK3; [2]) of the same compound?
A: 55%

Q: What about the remaining activity at 1 µM (CAMK2D; [2]) of the same compound?
A: 100%

Q: What about the remaining activity at 1 µM (MAP4K2; [2]) of the same compound?
A: 4.6%

Q: And the remaining activity at 1 µM (BRAF(V600E); [2])?
A: 1.2%

Q: What about the remaining activity at 1 µM (IRAK4; [2]) of the same compound?
A: 94%

Q: What about the remaining activity at 1 µM (CAMK2G; [2]) of the same compound?
A: 100%

Q: And the remaining activity at 1 µM (INSR; [2])?
A: 92%

Q: And the remaining activity at 1 µM (KIT(A829P); [2])?
A: 61%
